Results taken from patent US20140255392A1 (BAYER INTELLECTUAL PROPERTY GMBH, priority 2011, published 2014).
pIC50: −log10 of the molar value.

Molecular target: T1, human kinase Mps-1 (Homo sapiens, UniProt P33981)
T1 construct: N-terminally GST-tagged human full length recombinant Mps-1 kinase; GST (N); purchased Invitrogen, Karslruhe, Germany PV4071
T1 sequence (P33981 1-857): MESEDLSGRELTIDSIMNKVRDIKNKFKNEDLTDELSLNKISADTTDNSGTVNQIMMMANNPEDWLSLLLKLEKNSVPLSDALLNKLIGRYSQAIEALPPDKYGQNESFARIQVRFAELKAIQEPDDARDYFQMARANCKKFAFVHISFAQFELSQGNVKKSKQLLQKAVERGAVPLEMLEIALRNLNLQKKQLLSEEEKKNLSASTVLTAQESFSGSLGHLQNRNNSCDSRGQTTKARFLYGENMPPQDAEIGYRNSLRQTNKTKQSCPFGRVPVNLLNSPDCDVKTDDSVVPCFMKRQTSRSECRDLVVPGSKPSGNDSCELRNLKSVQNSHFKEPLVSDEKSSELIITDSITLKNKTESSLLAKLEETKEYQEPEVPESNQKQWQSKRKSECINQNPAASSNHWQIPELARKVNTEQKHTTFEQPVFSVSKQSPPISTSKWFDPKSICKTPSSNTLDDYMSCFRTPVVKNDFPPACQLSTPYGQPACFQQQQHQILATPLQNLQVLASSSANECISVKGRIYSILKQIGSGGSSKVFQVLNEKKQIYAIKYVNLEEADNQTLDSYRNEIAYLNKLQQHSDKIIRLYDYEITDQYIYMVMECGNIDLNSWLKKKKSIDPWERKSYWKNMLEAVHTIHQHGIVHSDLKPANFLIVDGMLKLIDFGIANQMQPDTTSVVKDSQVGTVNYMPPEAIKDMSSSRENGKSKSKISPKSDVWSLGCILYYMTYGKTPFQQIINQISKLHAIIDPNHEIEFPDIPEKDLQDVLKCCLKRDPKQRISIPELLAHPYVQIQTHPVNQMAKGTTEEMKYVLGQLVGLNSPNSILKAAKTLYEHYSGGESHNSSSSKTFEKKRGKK
Experiment: Mps-1 kinase assay (TR-FRET)
Format: biochemical
Conditions: N-terminally GST-tagged human full length recombinant Mps-1; 10 μM ATP; 1 μM peptide substrate; 60 min at 22° C.
Method in brief: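 TR-FRET signal between a Europium anti-phospho-Ser/Thr antibody and streptavidin-XLent reported phosphorylation of a biotinylated peptide by GST-tagged full-length Mps-1. Enzyme was near 1 nM final, chosen per lot for linearity.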

pIC50: 8.02
SMILES: Cc1cc(-c2cnc3c(NCCC(F)(F)F)cc(CCCO)cn23)ccc1C(=O)NC1CC1 [Example 128, N-cyclopropyl-4-{6-(3-hydroxypropyl)-8-[(3,3,3-trifluoropropyl)amino]imidazo[1,2-a]pyridin-3-yl}-2-methylbenzamide]
